Data on five compounds can be found in ChEMBL document CHEMBL4340567, “Generation of C5-desoxy analogs of tetrahydroisoquinoline alkaloids exhibiting potent DNA alkylating ability” (Bioorg Med Chem Lett, 2019).

Calls of active or inactive are those of the source. The rule behind the calls is not given here. Where only a bound is given, the exact number is not on record here.

The nature of assay [1]: Induction of alkylation in fluorescein-labelled 5'-AGT-3' double stranded DNA (unknown origin) at 100 uM incubated for 30 mins by EMSA relative to control. For orientation: A gel shift assay detects complexes by their altered migration in electrophoresis.
Assay [2] is described as follows: Induction of alkylation in fluorescein-labelled 5'-GGG-3' double stranded DNA (unknown origin) at 5 uM incubated for 30 mins by EMSA relative to control.
Assay [3] can be described thus: Induction of alkylation in fluorescein-labelled 5'-GGG-3' double stranded DNA (unknown origin) at 10 uM incubated for 30 mins by EMSA relative to control.
The nature of assay [4]: Induction of alkylation in fluorescein-labelled 5'-GGG-3' double stranded DNA (unknown origin) incubated for 30 mins by EMSA relative to control.
Assay [5] in a line: Induction of alkylation in fluorescein-labelled 5'-GGG-3' double stranded DNA (unknown origin) at 100 uM incubated for 30 mins by EMSA relative to control.
The nature of assay [6]: Induction of alkylation in fluorescein-labelled 5'-GGG-3' double stranded DNA (unknown origin) at 25 uM incubated for 30 mins by EMSA relative to control.
Assay [7] can be described thus: Reversible binding affinity to fluorescein-labelled 5'-GGG-3' double stranded DNA (unknown origin) at 100 uM incubated for 30 mins in presence of KCN by EMSA.
Assay [8] in a line: Binding affinity to fluorescein-labelled 5'-GGG-3' double stranded DNA (unknown origin) assessed as formation of compound-dsDNA oligomer complex at five equivalents incubated for 30 mins by EMSA relative to control.
A short description of assay [9]: Induction of alkylation in fluorescein-labelled 5'-GGG-3' double stranded DNA (unknown origin) at 2.5 uM incubated for 30 mins by EMSA relative to control.
Assay [10] is described as follows: Binding affinity to FAM-labelled 5'-GGG-3' double stranded DNA (unknown origin) assessed as migration of compound from 5'-AGT-3' to 5'-GGC-3' at 100 uM incubated for 30 mins by EMSA.
A short description of assay [11]: Induction of alkylation in fluorescein-labelled 5'-CGG-3' double stranded DNA (unknown origin) at 100 uM incubated for 30 mins by EMSA relative to control.
The nature of assay [12]: Induction of alkylation in fluorescein-labelled 5'-GGG-3' double stranded DNA (unknown origin) at 50 uM incubated for 30 mins by EMSA relative to control.
Assay [13] in a line: Induction of alkylation in fluorescein-labelled 5'-ATA-3' double stranded DNA (unknown origin) at 100 uM incubated for 30 mins by EMSA relative to control.
Assay [14] can be described thus: Induction of alkylation in fluorescein-labelled 5'-GGC-3' double stranded DNA (unknown origin) at 100 uM incubated for 30 mins by EMSA relative to control.
A short description of assay [15]: Induction of alkylation in fluorescein-labelled 5'-AGC-3' double stranded DNA (unknown origin) at 100 uM incubated for 30 mins by EMSA relative to control.

As to `COc1c(C)cc2c(c1O)[C@@H]1[C@@H]3Cc4cc(C)c(OC)c(O)c4[C@H](CNC(=O)[C@H](C)N)N3[C@@H](C#N)[C@H](C2)N1C`, the Activity in assay [1] was 36%; in assay [2] it was 41%; in assay [3], 85%; in assay [4], “Dose-dependent effect”; in [5], more than 90%; in assay [6], more than 95%. Further, the Activity in assay [8] was more than 95%; in assay [9], 10%; in [11], 63%; in assay [12] it was more than 95%; in assay [14] it was 94%; in assay [15], 80%. Besides, the result in [7] and in assay [10] was Active. The result in [13] was inactive.
For `COC1=C(C)C(=O)C2=C(C1=O)[C@H](CNC(=O)[C@H](C)N)N1[C@@H](C#N)[C@@H]3Cc4cc(C)c(OC)c(O)c4[C@H]([C@@H]1C2)N3C`, the result in assay [1] and in assay [13] was inactive. In addition, the Activity was found to be 31% in assay [5], 33% in assay [11], 53% in assay [14] and 17% in assay [15].
For the compound `COc1c(C)cc2c(c1O)[C@@H]1[C@@H]3Cc4cc(C)c(OC)c(O)c4[C@H](CNC(=O)[C@H](C)NC(=O)OCC4c5ccccc5-c5ccccc54)N3[C@@H](C#N)[C@H](C2)N1C`, the Activity in assay [5] came to 22%.
Turning to `CCCCCCCCC/C=C/COC(=O)N[C@@H](C)C(=O)NC[C@H]1c2c(cc(C)c(OC)c2O)C[C@H]2[C@H]3c4c(cc(C)c(OC)c4O)C[C@@H]([C@H](C#N)N12)N3C`, in [5], the result was inactive.
Regarding `C=CCOC(=O)N[C@@H](C)C(=O)NC[C@H]1c2c(cc(C)c(OC)c2O)C[C@H]2[C@H]3c4c(cc(C)c(OC)c4O)C[C@@H]([C@H](C#N)N12)N3C`, the Activity in assay [5] was 86%.
